Paper PMC12169680, “Design and Mechanistic Analysis of a Potent Bivalent Inhibitor of Transthyretin Amyloid Fibrillogenesis” (Journal of Medicinal Chemistry, 2025)

Key:
V122I TTR [1] = target: T1, V122I TTR (Homo sapiens, UniProt P02766, V142I); test: Inhibition of mechano-enzymatic fibrillogenesis (ThT); assay type: biochemical
T1 construct: 1-127; His6 (N); TEV cleavage site (N); made in house; host or cells: E. coli BL21 (DE3)
Experimental: To test their potency as inhibitors of TTR fibril formation, the 15 ligands were evaluated for their ability to inhibit the mechano-enzymatic mechanism of fibrillogenesis of V122I TTR, which is one of the most common amyloidogenic variants, , causing a disease with severity intermediate between the wild-type and other rare, more aggressive types of amyloidosis. […] Biochemical activity of ligands together with their physicochemical properties (i.e., cLogD, TPSA) were taken into consideration and B26 was finally selected as the most promising lead for further studies (Figure A). […] Prototype mds84 was also included for comparison. […] Although higher molar ratios of the monovalent ligands did inhibit fibrillogenesis, this cannot be replicated in vivo because the negative cooperativity of TTR cannot be overcome at feasible drug dosage. ,
Recombinant V122I TTR at 0.5 mg/mL (9 μM) in PBS, pH 7.4 was preincubated (37 °C for 30 min) with an equimolar concentration of ligand (or DMSO alone) before adding trypsin (5 ng/μL). Protein fibrillogenesis was carried out in glass vials stirred at 1400 rpm (IKA magnetic stirrer), 37 °C and spectrophotometric turbidity at 400 nm was used to monitor fibril formation over time until it reached a plateau at 96 h.
Analysis of amyloid material harvested from each sample at the end of the fibrillogenesis was carried out using Thioflavin T (ThT) emission fluorescence and Congo red staining. For these analyses, samples were centrifuged 20 min at 11,600g and pellets were thoroughly rinsed with PBS to remove nonbound ligand, resuspended with 100 μL PBS, pH 7.4, containing 10 μM Thioflavin T (ThT) in Costar 96-well black-wall plates. Bottom fluorescence values (excitation 440 nm, emission 480 nm) were recorded using a BMG LABTECH FLUostar Omega plate reader. Each value was normalized to the ThT signal of the TTR sample without ligand.

[2] = target: T2, recombinant wild-type TTR (Homo sapiens, UniProt P02766); test: Stopped flow kinetics of ligand binding by fluorescence emission; details: for rate constant k of TTR intrinsic fluorescence quenching / very early change in TTR fluorescence during dead time: 1 μM TTR; for rate constant k of TTR intrinsic fluorescence quenching: 1 μM ligand, 37 °C, PBS pH 7.4, first second; for very early change in TTR fluorescence during dead time: dead time <5 ms, equimolar ligand
T2 construct: Native TTR is a noncovalent homotetramer of β-sheet-rich 127-residue protomers; His6 (N); TEV cleavage site (N); made in house; host or cells: E. coli BL21 (DE3)
Experimental: Interaction of ligands in the TTR thyroxine binding pockets induces quenching of intrinsic fluorescence emission.
Kinetics of binding within the first second of reaction was evaluated with an SFM 3000 stopped flow device coupled to a MOS500 spectrometer with a fluorescence detection system (Bio Logic, Claix, France) and a cell path length of 1.5 mm (dead-time <5 ms). Total fluorescence emission over 325 nm, using a cut off filter, was monitored after excitation at 280 nm at 37 °C and 1 μM recombinant wild-type TTR in the presence of 1 μM of ligand in PBS pH 7.4 at a final concentration of 0.9% DMSO. Kinetic data were acquired as the average of at least 3 experimental mixings and fitted using the following equation y(t)=q+Aexp(−kt) where y(t) is the observed fluorescence q the offset of the baseline. A and k are, respectively, amplitude and rate constant of the observed fluorescence change.

V122I TTR [3] = target: T1, V122I TTR; test: Electrophoretic analysis of V122I TTR proteolysis before and after mechano-enzymatic aggregation; assay type: biochemical; details: SDS-PAGE, trypsin, 96 h aggregation
Experimental: Figure S2. Effect of B26 on proteolysis of V122I TTR. Homogenous SDS-12% PAGE under reducing conditions of 9 µM V122I TTR before (a) and after 96 h aggregation in the presence of 0 (b), 4.5 µM (c), 9 (d), 18 (e) and 36 µM (f) of B26 respectively in PBS pH 7.4 at 37°C. Aggregation was carried out under fluid agitation and addition of trypsin at an enzyme: substrate ratio of 1:200. LMW marker […]

[4] = target: T3, wild-type TTR in normal human plasma (Homo sapiens, UniProt P02766); test: Displacement of 125I-T4 from TTR in normal human plasma; assay type: binding
T3 construct: TTR in whole plasma, from individuals homozygous for wild-type TTR; from tissue; host or cells: whole human plasma from individuals homozygous for wild-type TTR

TTR = target: T4, TTR (Homo sapiens, UniProt P02766); test: NMR saturation transfer difference (STD) experiments to estimate k off; assay type: binding; details: no STD signal observed by increasing the saturation time
T4 construct: Native TTR is a noncovalent homotetramer of β-sheet-rich 127-residue protomers; His6 (N); TEV cleavage site (N); made in house; host or cells: E. coli BL21 (DE3)
Excerpt: However, the prototype mds84 was unsuitable for drug development due to its large and highly hydrophobic structure. The bivalent compound B26 represents the evolution of such TTR ligands. Compared to the palindromic prototype, the molecule has reduced size and reduced lipophilicity as a consequence of the removal of one of the aryl rings from headgroup B; introduction of an oxygen in the six-atom linker; replacement of the benzoyl group in headgroup A with 4-carboxy pyridine. Despite these structural changes, the ligand retains the same pseudoirreversible binding of mds84. […] Therefore, the B26 ligand overcomes the pharmaceutical limitations of negative cooperativity and, at the same time, retains the biomolecular property of very strong inhibition of TTR fibrillogenesis by simultaneously occupying the two ligand binding sites. Each of them is able to accommodate two aryl rings, and the one that penetrates deeper into the cavity is anchored to the protein by two halogen substituents. We have designed a bivalent molecule in which one-half has the properties of a classical analogue of the thyroid hormone, and the second half, connected through a chemical linker, is represented by only one aryl ring with halogen substituents.

Rat pharmacokinetics = assay type: in vivo; details: data not shown
[5] = residual V122I TTR fibrillar aggregation with equimolar ligand, ThT emission normalized to protein without ligand, mean ± SD
[6] = supplementary CSV, residual V122I TTR aggregation, equimolar ligand

O=C(O)CCc1cc(Cl)c(OCCCOCCOc2c(Cl)cc(Nc3cnccc3C(=O)O)cc2Cl)c(Cl)c1 [B26, 3-[4-[2-[3-[4-(2-Carboxyethyl)-2,6-dichloro-phenoxy]-propoxy]-ethoxy]-3,5-dichloro-anilino]-Pyridine-4-Carboxylic Acid]
antifibrillogenic activity, in words (V122I TTR [1]; V122I TTR, equimolar ligand): excellent antifibrillogenic activity | Agg (%) (V122I TTR [1]; [5]): 4.2 ± 1.9% | Agg (%) (V122I TTR [1]; [6]): 4.2±1.9% | rate constant k of TTR intrinsic fluorescence quenching [2]: 22 ± 0.55 s^–1 | very early change in TTR fluorescence during dead time [2]: approximately 8% | quenching reaction / penetrance faster than mds84 ([2]; ratio of rate constants): 5 fold | quenching reaction slower than tafamidis ([2]; ratio of rate constants): at least 2 fold | reduction of TTR intrinsic fluorescence ([2]; within the first second, equimolar protein and ligand): ~30% | effect on proteolysis of V122I TTR (V122I TTR [3]): inhibited proteolysis | binding to TTR in plasma, in words ([4]; normal human plasma): preservation of the properties | k off (TTR): very slow

O=C(O)CCc1cc(Cl)c(OCCCCCCCOc2c(Cl)cc(Nc3ccccc3C(=O)O)cc2Cl)c(Cl)c1 [compound 1]
IC50 ([4]; capacity to displace 125I-T4 from TTR in human plasma): 2 ± 0.2 µM | rat pharmacokinetics compared with mds84 (Rat pharmacokinetics): much improved

O=C(O)c1ccccc1Nc1cc(Cl)c(OCCCCCCCOc2c(Cl)cc(Nc3ccccc3C(=O)O)cc2Cl)c(Cl)c1 [mds84, reference compound]
Agg (%) (V122I TTR [1]; [5]): 2.4 ± 0.30% | Agg (%) (V122I TTR [1]; [6]): 2.4±0.30% | rate constant k of TTR intrinsic fluorescence quenching [2]: 4.4 ± 0.44 s^–1 | very early change in TTR fluorescence during dead time [2]: 3% | IC50 ([4]; ligand concentration reducing binding of 125I-thyroxine by wild-type TTR by 50% in normal human plasma, mean ± SD): 19 ± 5.8 µM

O=C(O)c1ccc2nc(-c3cc(Cl)cc(Cl)c3)oc2c1 [tafamidis, reference compound]
inhibition of V122I TTR amyloid formation at equimolar ligand/protein, in words (V122I TTR [1]; 9 μM V122I TTR, equimolar concentration, bivalent vs monovalent ligands): significantly lower inhibitory effect | rate constant k of TTR intrinsic fluorescence quenching [2]: 49 ± 0.0016 s^–1 | very early change in TTR fluorescence during dead time [2]: approximately 8%
